# Measured values as given in patent US7163946B2 (Ligand Pharmaceuticals Incorporated, priority 2002, dated 2007).
# What was measured:
# Assay type in all cases: cell-based
# hPR [1] = target: T1, hPR (Homo sapiens, UniProt P06401); test: T47D alkaline phosphatase assay, agonist mode; conditions: T47D human breast cancer cells; for Emax: T47D, read-out: hPR Agonist T47D cells Eff. (%)
# T1 sequence (P06401 679-933 limits assumed): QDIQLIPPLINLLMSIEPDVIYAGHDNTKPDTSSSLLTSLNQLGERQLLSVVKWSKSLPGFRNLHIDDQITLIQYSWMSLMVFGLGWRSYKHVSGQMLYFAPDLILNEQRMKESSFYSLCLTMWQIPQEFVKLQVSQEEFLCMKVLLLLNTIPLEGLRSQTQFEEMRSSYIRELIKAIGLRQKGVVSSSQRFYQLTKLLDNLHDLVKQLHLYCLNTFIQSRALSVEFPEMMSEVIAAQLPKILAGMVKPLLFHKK
# hGR = target: T2, hGR (Homo sapiens, UniProt P04150); test: hGR cotransfection assay (potency ratio to hPR); conditions: receptor-selectivity potency ratio, cotransfection assays
# T2 sequence (P04150 1-777): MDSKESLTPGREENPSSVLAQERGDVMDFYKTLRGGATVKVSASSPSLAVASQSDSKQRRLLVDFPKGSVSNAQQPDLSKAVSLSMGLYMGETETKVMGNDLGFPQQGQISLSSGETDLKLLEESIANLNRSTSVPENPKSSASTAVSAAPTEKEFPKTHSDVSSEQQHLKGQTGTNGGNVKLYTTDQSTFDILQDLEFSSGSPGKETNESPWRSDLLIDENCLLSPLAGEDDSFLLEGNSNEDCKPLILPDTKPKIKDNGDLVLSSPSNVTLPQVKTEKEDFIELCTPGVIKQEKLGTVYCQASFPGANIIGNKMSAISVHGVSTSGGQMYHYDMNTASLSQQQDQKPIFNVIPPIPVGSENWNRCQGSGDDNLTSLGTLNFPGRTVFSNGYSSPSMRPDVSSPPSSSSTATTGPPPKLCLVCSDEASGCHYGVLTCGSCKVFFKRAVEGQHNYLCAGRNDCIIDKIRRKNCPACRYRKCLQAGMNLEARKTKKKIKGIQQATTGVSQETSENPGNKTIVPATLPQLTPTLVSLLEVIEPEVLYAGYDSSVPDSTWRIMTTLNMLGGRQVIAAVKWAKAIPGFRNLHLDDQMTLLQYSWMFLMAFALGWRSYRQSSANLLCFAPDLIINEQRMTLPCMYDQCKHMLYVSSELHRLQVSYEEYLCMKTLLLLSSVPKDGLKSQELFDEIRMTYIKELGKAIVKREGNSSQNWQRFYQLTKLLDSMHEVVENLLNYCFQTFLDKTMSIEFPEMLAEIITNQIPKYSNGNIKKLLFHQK
# hPR [2] = target: T3, hPR (Homo sapiens, UniProt P06401); test: hPR cotransfection assay in CV-1 cells, antagonist mode; conditions: for Emax: CV-1, CV-1 cells, maximal inhibition of reference agonist at EC50 concentration, read-out: hPR Antagonist CV-1 Cells Eff. (%); for IC50: CV-1 cells
# T3 sequence (P06401 1-933): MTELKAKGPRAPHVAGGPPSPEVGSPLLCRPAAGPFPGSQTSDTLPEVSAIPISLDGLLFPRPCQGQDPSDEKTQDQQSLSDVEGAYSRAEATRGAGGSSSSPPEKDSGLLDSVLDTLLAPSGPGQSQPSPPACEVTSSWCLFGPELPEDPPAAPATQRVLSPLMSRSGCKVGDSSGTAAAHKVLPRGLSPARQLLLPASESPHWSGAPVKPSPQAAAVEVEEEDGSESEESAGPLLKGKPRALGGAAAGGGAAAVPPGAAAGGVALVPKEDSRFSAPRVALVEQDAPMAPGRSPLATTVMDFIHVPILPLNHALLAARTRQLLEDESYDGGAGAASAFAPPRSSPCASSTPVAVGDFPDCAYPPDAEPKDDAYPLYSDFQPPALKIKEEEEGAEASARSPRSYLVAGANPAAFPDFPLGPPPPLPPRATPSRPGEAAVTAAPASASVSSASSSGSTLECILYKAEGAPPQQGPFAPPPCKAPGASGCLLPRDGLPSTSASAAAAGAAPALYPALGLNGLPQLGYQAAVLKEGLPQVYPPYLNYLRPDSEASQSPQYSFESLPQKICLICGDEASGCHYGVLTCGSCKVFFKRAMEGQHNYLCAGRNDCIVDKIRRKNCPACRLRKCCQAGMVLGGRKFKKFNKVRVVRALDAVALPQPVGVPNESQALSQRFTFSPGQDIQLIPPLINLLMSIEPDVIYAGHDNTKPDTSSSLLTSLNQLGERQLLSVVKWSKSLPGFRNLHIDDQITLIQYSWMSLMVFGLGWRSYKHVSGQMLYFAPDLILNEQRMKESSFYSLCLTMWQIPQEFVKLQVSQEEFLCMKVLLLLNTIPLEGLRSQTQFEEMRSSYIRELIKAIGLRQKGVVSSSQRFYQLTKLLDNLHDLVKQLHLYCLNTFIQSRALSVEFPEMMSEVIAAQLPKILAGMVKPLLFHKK
# hPR [3] = target: T3, hPR; test: hPR cotransfection assay in CV-1 cells, agonist mode; conditions: for Emax: CV-1, CV-1 cells, relative to maximal response of progesterone as 100%, read-out: hPR Agonist CV-1 Cells Eff. (%)
# [4] = CV-1 cells, read-out: hPR Agonist CV-1 Cells EC50
# [5] = Tables 3 and 4, values without footnote, read-out: hPR agonist potencies (EC50 in nM) in the cotransfection assay
EC50 (hPR [1]) [nM],Emax (hPR [1]) [%],hGR EC50 or IC50/hPR EC50 (hGR),Emax (hPR [2]) [%],IC50 (hPR [2]) [nM],Emax (hPR [3]) [%],EC50 (hPR [3]; [4]) [nM],EC50 (hPR [3]; [5]) [nM],SMILES
35,62,10,< 20,> 10000,85,3.5,3.5,"CC1=CC(C)(C)Nc2ccc3c(c21)C(c1ccccc1)Oc1c(F)cc(F)cc1-3 (racemic) [Compound 33, (±)-7,9-difluoro-5-phenyl-1,2-dihydro-2,2,4-trimethyl-5H-chromeno[3,4-f]quinoline]"
7.5,63,342,< 20,> 10000,159,0.6,0.6,"COc1ccc(F)cc1/C=C1\Oc2c(F)cc(F)cc2-c2ccc3c(c21)C(C)=CC(C)(C)N3 [Compound 26, 7,9-difluoro-5(Z)-(2-methoxy-5-fluorobenzylidene)-1,2-dihydro-2,2,4-trimethyl-5H-chromeno[3,4-f]quinoline]"
4.6,58,>1000,< 20,> 10000,89,0.7,,"CC#CC1Oc2c(F)cc(F)cc2-c2ccc3c(c21)C(C)=CC(C)(C)N3 (racemic) [Compound 74, (±)-7,9-difluoro-5-(1-propynyl)-1,2-dihydro-2,2,4-trimethyl-5H-chromeno[3,4-f]quinoline]"
42,54,105,< 20,> 10000,146,1.87,1.87,"CC1=CC(C)(C)Nc2ccc3c(c21)C(c1cccc(Cl)c1)Oc1c(F)cc(F)cc1-3 (racemic) [Compound 41, (±)-7,9-difluoro-5-(3-chlorophenyl)-1,2-dihydro-2,2,4-trimethyl-5H-chromeno[3,4-f]quinoline]"
14,66,59,< 20,> 10000,171,2.7,2.7,"CC1=CC(C)(C)Nc2ccc3c(c21)/C(=C/c1cccs1)Oc1c(F)cc(F)cc1-3 [Compound 31, 7,9-difluoro-5(Z)-(2-thienylmethylidene)-1,2-dihydro-2,2,4-trimethyl-5H-chromeno[3,4-f]quinoline]"
6.6,63,27,< 20,> 10000,147,2.8,2.8,"CC1=CC(C)(C)Nc2ccc3c(c21)/C(=C/c1ccncc1C)Oc1c(F)cc(F)cc1-3 [Compound 20, 7,9-difluoro-5(Z)-(3-methyl-4-picolylidene)-1,2-dihydro-2,2,4-trimethyl-5H-chromeno[3,4-f]quinoline]"
8.7,65,432,< 20,> 10000,212,1.4,1.4,"CC1=CC(C)(C)Nc2ccc3c(c21)/C(=C/c1cc(F)ccc1C)Oc1c(F)cc(F)cc1-3 [Compound 19, 7,9-difluoro-5(Z)-(2-methyl-5-fluorobenzylidene)-1,2-dihydro-2,2,4-trimethyl-5H-chromeno[3,4-f]quinoline]"
49,58,365,< 20,> 10000,103,7.4,7.4,"CC1=CC(C)(C)Nc2ccc3c(c21)/C(=C/c1ccncc1)Oc1c(F)cc(F)cc1-3 [Compound 14, 7,9-difluoro-5(Z)-(4-picolylidene)-1,2-dihydro-2,2,4-trimethyl-5H-chromeno[3,4-f]quinoline]"
8.7,62,83,< 20,> 10000,191,2.3,,"CC1=CC(C)(C)Nc2ccc3c(c21)/C(=C/Br)Oc1c(F)cc(F)cc1-3 [Compound 29, 7,9-difluoro-5(Z)-bromomethylidene-1,2-dihydro-2,2,4-trimethyl-5H-chromeno[3,4-f]quinoline]"
33,66,19,< 20,> 10000,186,5.3,,"CC1=CC(C)(C)Nc2ccc3c(c21)/C(=C/c1ccsc1)Oc1c(F)cc(F)cc1-3 [Compound 30, 7,9-difluoro-5(Z)-(3-thienylmethylidene)-1,2-dihydro-2,2,4-trimethyl-5H-chromeno[3,4-f]quinoline]"
34,60,>1000,< 20,> 10000,114,1.2,1.2,"CC1=CC(C)(C)Nc2ccc3c(c21)C(c1cccc(C)c1)Oc1c(F)cc(F)cc1-3 (racemic) [Compound 34, (±)-7,9-difluoro-5-(3-methylphenyl)-1,2-dihydro-2,2,4-trimethyl-5H-chromeno[3,4-f]quinoline]"
130,50,54,< 20,> 10000,89,1.24,1.24,"CC1=CC(C)(C)Nc2ccc3c(c21)C(c1ccc(Cl)c(C)c1)Oc1c(F)cc(F)cc1-3 (racemic) [Compound 37, (±)-7,9-difluoro-5-(4-chloro-3-methylphenyl)-1,2-dihydro-2,2,4-trimethyl-5H-chromeno[3,4-f]quinoline]"
19,56,30,< 20,> 10000,191,3.8,3.8,"CC1=CC(C)(C)Nc2ccc3c(c21)/C(=C/c1cccc(F)c1)Oc1c(F)cc(F)cc1-3 [Compound 15, 7,9-difluoro-5(Z)-(3-fluorobenzylidene)-1,2-dihydro-2,2,4-trimethyl-5H-chromeno[3,4-f]quinoline]"
12,62,66,< 20,> 10000,169,2.9,2.9,"CC1=CC(C)(C)Nc2ccc3c(c21)/C(=C/c1cc(F)ccc1F)Oc1c(F)cc(F)cc1-3 [Compound 17, 7,9-difluoro-5(Z)-(2,5-difluorobenzylidene)-1,2-dihydro-2,2,4-trimethyl-5H-chromeno[3,4-f]quinoline]"
